Assay results as given in patent US10632171B2, “Melanocortin receptor-specific peptides” (Palatin Technologies, Inc., priority 2009, dated 2020).
Peptide text beside a SMILES is read from it.

What was measured:
hMC4-R [1] = target: T1, hMC4-R (Homo sapiens (Human), UniProt P32245); test: Competitive binding assay using Eu-NDP-α-MSH; settings: averaged; determined using Eu-NDP-α-MSH (values marked *); read-out: MC4-R Ki
Procedure: Alternatively, a competitive inhibition binding assay was performed employing Eu-NDP-α-MSH (PerkinElmer Life Sciences catalog No. AD0225) with determination by time-resolved fluorometry (TRF) of the lanthanide chelate. […] After incubation for 90 minutes at 37° C., the reaction was stopped by filtration over AcroWell 96-well filter plates (Pall Life Sciences). The filter plates were washed 4 times with 200 μL of ice-cold phosphate-buffered saline. DELFIA Enhancement solution (PerkinElmer Life Sciences) was added to each well. […] Each assay was conducted in duplicate and mean values were utilized. Ki values were determined by curve-fitting with Graph-Pad Prism® software using a one-site fixed-slope competition binding model.

hMC4-R [2] = target: T1, hMC4-R; test: Competitive inhibition binding assay using [I125]-NDP-α-MSH; settings: averaged; determined using [I125]-NDP-α-MSH (values not marked *); read-out: MC4-R Ki
Procedure: A competitive inhibition binding assay is performed using membrane homogenates prepared from HEK-293 cells that express recombinant hMC4-R, hMC3-R, or hMC5-R, and from B-16 mouse melanoma cells (containing endogenous MC1-R). In some instances, HEK-293 cells that express recombinant hMC1-R were employed. In the examples that follow, all MC3-R, MC4-R and MC5-R values are for human recombinant receptors. […] Membrane homogenates were incubated with 0.2 nM (for hMC4-R) 0.4 nM (for MC3-R and MC5-R) or 0.1 nM (for mouse B16 MC1-R or hMC1-R) [I^125]-NDP-α-MSH (Perkin Elmer) and increasing concentrations of test peptides of the present invention in buffer containing 25 mM HEPES buffer (pH 7.5) with 100 mM NaCl, 2 mM CaCl2, 2 mM MgCl2, 0.3 mM 1,10-phenanthroline, and 0.2% bovine serum albumin. After incubation for 60 minutes at 37° C., the assay mixture was filtered and the membranes washed three times with ice-cold buffer. Filters were dried and counted in a gamma counter for bound radioactivity. […] Maximal specific binding (100%) was defined as the difference in radioactivity (cpm) bound to cell membranes in the absence and presence of 1 μM NDP-α-MSH. […] Each assay was conducted in triplicate and the actual mean values are described, with results less than 0% reported as 0%. Ki values for test peptides of the present invention were determined using Graph-Pad Prism® curve-fitting software.

T1 sequence (P32245 whole entry): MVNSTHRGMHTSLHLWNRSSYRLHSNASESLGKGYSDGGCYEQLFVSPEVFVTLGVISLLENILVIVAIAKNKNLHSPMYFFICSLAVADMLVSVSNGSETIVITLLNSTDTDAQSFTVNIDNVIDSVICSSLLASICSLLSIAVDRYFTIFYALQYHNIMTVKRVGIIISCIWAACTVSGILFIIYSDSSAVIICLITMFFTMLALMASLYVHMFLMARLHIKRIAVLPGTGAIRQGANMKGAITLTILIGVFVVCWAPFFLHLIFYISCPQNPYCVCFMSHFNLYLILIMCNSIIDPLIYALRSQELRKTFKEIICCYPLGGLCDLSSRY

Row | Ki (hMC4-R [1]) [nM] | Ki (hMC4-R [2]) [nM] | SMILES
1 | 144 |  | CC(=O)N[C@@H](CCCNC(=N)N)C(=O)N[C@H]1CC(=O)NCCCC[C@@H](C(=O)O)NC(=O)[C@H](Cc2c[nH]c3ccccc23)NC(=O)[C@H](CCCNC(=N)N)NC(=O)[C@@H](Cc2ccccc2)NC(=O)[C@H](C)NC1=O [compound 52, Ac-Arg-cyclo(Asp-Ala- D-Phe-Arg-Trp-Lys)-OH] (HELM PEPTIDE1{[ac].R.D.A.[dF].R.W.K}$PEPTIDE1,PEPTIDE1,3:R3-8:R3$$$V2.0)
2 |  | 3 | CC(=O)N[C@@H](CCCNC(=N)N)C(=O)N[C@H]1CC(=O)NCCCC[C@@H](C(N)=O)NC(=O)[C@H](Cc2c[nH]c3ccccc23)NC(=O)[C@H](CCCNC(=N)N)NC(=O)[C@@H](Cc2ccccc2)NC(=O)[C@@H]2C[C@@H](O)CN2C1=O [compound 101, Ac-Arg-cyclo(Glu-Hyp- D-Phe-Arg-Trp-Orn)- NH2]
3 |  | 873 | CC(=O)N[C@@H](CCCNC(=N)N)C(=O)N[C@H]1CC(=O)NCCCC[C@@H](C(N)=O)NC(=O)[C@H](Cc2c[nH]c3ccccc23)NC(=O)[C@H](CCCNC(N)=O)NC(=O)[C@@H](Cc2ccccc2)NC(=O)[C@H](CCCCN)NC1=O [compound 116, Ac-Arg-cyclo(Asp-Lys- D-Phe-Cit-Trp-Lys)-NH2] (HELM PEPTIDE1{[ac].R.D.K.[dF].[Cit].W.K.[am]}$PEPTIDE1,PEPTIDE1,3:R3-8:R3$$$V2.0)
